Values quoted from earlier work as cited in patent publication US20240335498A1, “COMPOSITION AND METHODS OF TREATMENT USING TRANSDERMAL SUPPLEMENTATION” (Xygenyx Inc., priority 2023, published 2024).
Square brackets hold non-standard residues; d marks the D form. Peptide text beside a SMILES is read from it. Cit = NC(=O)NCCC[C@H](N)C(=O)O

Key:
[1] = penetration enhancer used alone
[2] = test system: wide dynamic range neurons in the ventroposterolateral nucleus of the thalamus
[3] = topical application, concentrations 0.5-5%
[4] = topical formulations, within four weeks of treatment
[5] = dietary supplementation, doses up to 400 IU/day
F2-isoprostane = details: large doses of 1600-3200 IU/day
[6] = compared to α-tocopherol = 1.0
[7] = even when dietary intake occurs in equal portions
[8] = in vivo

For CC(C)[C@@H]1CC[C@@H](C)C[C@H]1O [Menthol], the “increase of transdermal drug uptake (factor)” value [1] is given as no less than 10.
In the case of CCCCCc1cc(O)c2c(c1)OC(C)(C)C1CCC(C)=CC21 (stereo not drawn) [THC, Δ-9-tetrahydrocannabinol], the “power in mediating pain relative to morphine” value [2] is listed as “ten times more powerful”.
In the case of C=CCCCCCCCCC(=O)N[C@@H](Cc1ccccc1)C(=O)O [UP, Undecylenoyl phenylalanine], the “time to skin lightening effects” value [3] is given as no less than 7 days.
In the case of CC12CCC(CC1)C(C)(C)O2 [eucalyptol, Eucalyptol], the “increase of transdermal drug uptake (factor)” value [1] is given as “more than 10”.
For C/C(=C\CO)CCC[C@H](C)CCC[C@H](C)CCCC(C)C [phytol, Phytol], the solubility in water is given as “nearly insoluble”.
For CC[C@H](C)[C@H](NC(=O)[C@H](CC(=O)O)NC(=O)[C@@H](N)CCCCN)C(=O)N[C@@H](CCCNC(N)=O)C(N)=O [tripeptide-10 citrulline, Tripeptide-10 citrulline] (H-KDI[Cit]-NH2), the improvement of suppleness [4] is listed as no more than 54%.
In the case of Cc1c(C)c2c(c(C)c1O)CC[C@@](C)(CCC[C@H](C)CCC[C@H](C)CCCC(C)C)O2 [α-tocopherol], the “reduction of the risk of coronary disease” value [5] is listed as “up to 34%”, the “reduction of the risk of developing neurodegenerative diseases such as Alzheimer's Syndrome or dementia” value ([5]; controlled trials) is listed as no more than 24% and the “blood plasma concentration of F2-isoprostane” value (F2-isoprostane) is listed as “significantly lower”. For the same compound, the relative biological activity [6] was 1.0.
For Cc1cc(O)c(C)c2c1O[C@](C)(CCC[C@H](C)CCC[C@H](C)CCCC(C)C)CC2 [β-tocopherol], the relative biological activity [6] is listed as 0.5.
For Cc1c(O)cc2c(c1C)O[C@](C)(CCC[C@H](C)CCC[C@H](C)CCCC(C)C)CC2 [γ-tocopherol], the relative biological activity [6] is given as 0.1 and the “concentration in vivo relative to α-tocopherol” value [7] is given as “roughly 10%”.
In the case of Cc1cc(O)cc2c1O[C@](C)(CCC[C@H](C)CCC[C@H](C)CCCC(C)C)CC2 [δ-tocopherol], the relative biological activity [6] is listed as 0.03.
For “HGH: hormone comprising a peptide chain that is synthesized in the pituitary gland”, the biological half-life [8] is given as 10-20 minutes.
